From patent publication USRE46511E1, “Fused pyrimidine derivatives for inhibition of tyrosine kinase activity” (HANMI SCIENCE CO., LTD., priority 2010, dated 2017) come the findings set out here.

Test [1] relates to NCI-H1975 (EGFR L858R/T790M). Put plainly: Inhibition test for growth of cancer cell expressing EGFR (MTS), NCI-H1975. To be noted: Homo sapiens; NCI-H1975 cells, 48 hours, MTS; read-out: GI50 NCI-H1975 EGFR L858R/T790M. Format: cell-based.
Procedure: (§1) A431 cell line was incubated in a high-glucose DMEM (Dulbecco's Modified Eagle's Medium) supplemented with 10% fetal bovine serum (FBS) and 1% penicillin/streptomycin (Gibco BRL), and HCC827 and NCI-H1975 cell lines were incubated in an RPMI medium supplemented with 10% FBS, 1% penicillin/streptomycin and 1% sodium pyruvate.
(§2) The cancer cell lines stored in a liquid nitrogen tank were each quickly thawed at 37° C., and centrifuged to remove the medium. The resulting cell pellet was mixed with a culture medium, incubated in a culture flask at 37° C. under 5% CO2 for 2 to 3 days, and the medium was removed. The remaining cells were washed with DPBS (Dulbecco's Phosphate Buffered Saline) and separated from the flask by using Tripsin-EDTA. […] 100 μl of the diluted cell solution was added to each well of a 96-well plate, and incubated at 37° C. under 5% CO2 for 1 day.
(§3) In case that the test compound was not soluble in DMSO, 1% HCl was added thereto and treated in a 40° C. water bath for 30 mins until a complete dissolution was attained. The DMSO solution containing test compound was diluted with a culture medium to a final concentration of 100 μM, and then diluted 10 times serially to 10^−6 μM (a final concentration of DMSO was less than 1%).
(§4) The medium was removed from each well of the 96-well plate. And then, 100 μl of a test compound solution was added to each well holding the cultured cells, and the plate was incubated at 37° C. under 5% CO2 for 72 hours (except that NCI-H1975 cells were incubated for 48 hours). After removing the medium from the plate, 50 μA of 10% trichloroacetic acid was added to each well, and the plate was kept at 4° C. for 1 hour to fix the cells to the bottom of the plate. The added 10% trichloroacetic acid solution was removed from each well, the plate was dried, 100 μA of an SRB (Sulforhodamine-B) dye solution at a concentration of 0.4% dissolved in 1% acetic acid was added thereto, and the resulting mixture was reacted for 10 mins at room temperature. After removing the dye solution, the plate was washed with water, and well dried. When the dye solution was not effectively removed by water, 1% acetic acid was used. 150 μA of 10 mM trisma base was added to each well, and the absorbance at 540 nm wavelength was determined with a microplate reader.
Test [2] concerns HCC827 (EGFR DelE746_A750). The test can be described thus: Inhibition test for growth of cancer cell expressing EGFR (SRB), HCC827.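 Further: cells in 96-well plates exposed to tenfold serial dilutions from 100 µM, fixed with trichloroacetic acid, SRB-stained, absorbance read at 540 nm, DMSO under 1%.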 The test is classed as cell-based. The conditions noted are these: Homo sapiens, HCC827, 72 h, HCC827 cells, 72 hours, SRB; read-out: GI50 HCC827 EGFR DelE746_A750.
Procedure: as §1, §2, §3, §4

Turning to `C=CC(=O)Nc1cccc(Oc2nc(Nc3ccc(C(=O)N(C)C)cc3)nc3ccsc23)c1` [Example 84], the GI50 in test [1] and in test [2] was 50 to 100 nM each time.
With `C=CC(=O)Nc1cccc(Oc2nc(Nc3ccc(N4CCC(N(C)C)CC4)cc3)nc3ccsc23)c1` [Example 38], the GI50 in test [1] and in test [2] was below 50 nM each time.
As to `C=CC(=O)Nc1cccc(Oc2nc(Nc3ccc(CN4CCN(C)CC4)c(F)c3)nc3ccsc23)c1` [Example 197], the GI50 in test [1] and in test [2] was below 50 nM throughout.
As for `C=CC(=O)Nc1cccc(Oc2nc(Nc3ccc(N4CCN(CCO)CC4)cc3)nc3ccsc23)c1` [Example 18], the GI50 in test [1] and in test [2] was below 50 nM in each case.
For `C=CC(=O)Nc1cccc(Oc2nc(Nc3ccc(OCCN4CCN(C)CC4)c(F)c3)nc3ccsc23)c1` [Example 134], the GI50 in test [1] and in test [2] was below 50 nM in each case.
For `C=CC(=O)Nc1cccc(Oc2nc(Nc3ccc(OCCOC)c(F)c3)nc3ccsc23)c1` [Example 131], the GI50 in test [1] was below 50 nM; in test [2] it was 50 to 100 nM.
`C=CC(=O)Nc1cccc(Oc2nc(Nc3ccc(/C=C/CN4CCCCC4)cc3)nc3ccsc23)c1` [Example 102]: the figures for the GI50 in test [1] and in test [2] were 50 to 100 nM and below 50 nM, respectively.
In the same order, the values of `C=CC(=O)Nc1cccc(Oc2nc(Nc3ccc(N4CCN(C(=O)CN(C)C)CC4)c(F)c3)nc3ccsc23)c1` [Example 119] are below 50 nM and below 50 nM.
On to `C=CC(=O)Nc1cccc(Oc2nc(Nc3ccc(N4CCC(n5ccnc5)CC4)cc3)nc3ccsc23)c1` [Example 46], for which the GI50 in test [1] and in test [2] was below 50 nM each time.
Take `C=CC(=O)Nc1cccc(Sc2nc(Nc3ccc(N4CCOCC4)c(F)c3)nc3ccsc23)c1` [Example 224]: the GI50 in test [1] and in test [2] was below 50 nM throughout.
For the compound `C=CC(=O)Nc1cccc(Oc2nc(Nc3ccc(C(=O)NC)cc3)nc3ccsc23)c1` [Example 78], the GI50 in test [1] and in test [2] was 50 to 100 nM throughout.
Regarding `C=CC(=O)Nc1cccc(Oc2nc(Nc3ccc(NC(=O)N4CCN(C)CC4)cc3)nc3ccsc23)c1` [Example 172], the GI50 in test [1] was below 50 nM; in test [2], 50 to 100 nM.
The matching figures for `C=CC(=O)Nc1cccc(Oc2nc(Nc3ccc(N4CCN(C(=O)N5CCOCC5)CC4)cc3)nc3ccsc23)c1` [Example 22]: 50 to 100 nM and below 50 nM.
In the same order, the values of `C=CC(=O)Nc1cccc(Oc2nc(Nc3ccc(OCCN4CCOCC4)c(F)c3)nc3ccsc23)c1` [Example 135] are below 50 nM and 50 to 100 nM.
The matching figures for `C=CC(=O)Nc1cccc(Oc2nc(Nc3ccc(N4CCC(N5CCOCC5)CC4)c(F)c3)nc3ccsc23)c1` [Example 126]: below 50 nM and below 50 nM.
As to `C=CC(=O)Nc1cccc(Oc2nc(Nc3ccc(OCCN4CCOCC4)c(OC)c3)nc3ccsc23)c1` [Example 116], the GI50 in test [1] and in test [2] was below 50 nM throughout.
With `C=CC(=O)Nc1cccc(Oc2nc(Nc3ccc(S(=O)(=O)NC4CC4)cc3)nc3ccsc23)c1` [Example 71], the GI50 in test [1] is below 50 nM; in test [2], 50 to 100 nM.
With `C=CC(=O)Nc1cccc(Oc2nc(Nc3ccc(C(C)=O)cc3)nc3ccsc23)c1` [Example 77], the GI50 in test [1] and in test [2] was below 50 nM throughout.
As for `C=CC(=O)Nc1cccc(Oc2nc(Nc3ccc(C4(N)CC4)cc3)nc3ccsc23)c1` [Example 160], the GI50 in test [1] and in test [2] was below 50 nM throughout.
With `C=CC(=O)Nc1cccc(Oc2nc(Nc3ccc(NC(=O)CCN4CCCC4)cc3)nc3ccsc23)c1` [Example 92], the GI50 in test [1] and in test [2] was below 50 nM in each case.
For the compound `C=CC(=O)Nc1cccc(Oc2nc(Nc3ccc(CCO)cc3)nc3ccsc23)c1` [Example 190], the GI50 in test [1] and in test [2] was below 50 nM each time.
Take `C=CC(=O)Nc1cccc(Oc2nc(Nc3ccc(CN(C)C)cc3C)nc3ccsc23)c1` [Example 205]: the GI50 in test [1] and in test [2] was below 50 nM throughout.
With `C=CC(=O)Nc1cccc(Oc2nc(Nc3ccc4c(c3)OCCO4)nc3ccsc23)c1` [Example 106], the GI50 was below 50 nM in test [1] and 50 to 100 nM in test [2].
The matching figures for `C=CC(=O)Nc1cccc(Oc2nc(Nc3ccc(C(=O)N4CCN(S(=O)(=O)CC)CC4)c(Cl)c3)nc3ccsc23)c1` [Example 144]: 50 to 100 nM and below 50 nM.
In the same order, the values of `C=CC(=O)Nc1cccc(Oc2nc(Nc3ccc(C4CCN(C)CC4)cc3OC)nc3ccsc23)c1` [Example 114] are below 50 nM and 50 to 100 nM.
As to `C=CC(=O)Nc1cccc(Nc2nc(Nc3ccc(CN4CCCCC4)cc3)nc3ccsc23)c1` [Example 221], the GI50 in test [1] and in test [2] was below 50 nM throughout.
In the case of `C=CC(=O)Nc1cccc(Oc2nc(Nc3ccc(N4CCN(S(=O)(=O)N(C)C)CC4)cc3)nc3ccsc23)c1` [Example 25], the GI50 in test [1] and in test [2] was 50 to 100 nM in each case.
Regarding `C=CC(=O)Nc1cccc(Oc2nc(Nc3ccc(N4CCN(CCO)CC4)cn3)nc3ccsc23)c1` [Example 156], the GI50 in test [1] is 50 to 100 nM; in test [2], below 50 nM.
In the case of `C=CC(=O)Nc1cccc(Oc2nc(Nc3ccc(N4CC(C)OC(C)C4)c(F)c3)nc3ccsc23)c1` (centres unmarked) [Example 123], the GI50 in test [1] and in test [2] was 50 to 100 nM each time.
Consider `C=CC(=O)Nc1cccc(Oc2nc(Nc3ccc(OC4CCN(C)CC4)c(F)c3)nc3ccsc23)c1` [Example 136], for which the GI50 in test [1] and in test [2] was below 50 nM each time.
In the case of `C=CC(=O)Nc1cccc(Oc2nc(Nc3ccc(N4CCN(C(C)(C)C)CC4)cc3)nc3ccsc23)c1` [Example 12], the GI50 in test [1] and in test [2] was below 50 nM each time.
As for `C=CC(=O)Nc1cccc(Nc2nc(Nc3ccc(NC4CCN(C)CC4)c(F)c3)nc3ccsc23)c1` [Example 217], the GI50 in test [1] was 50 to 100 nM; in test [2], below 50 nM.
In the same order, the values of `C=CC(=O)Nc1cccc(Sc2nc(Nc3ccc(C4CCN(C)CC4)c(F)c3)nc3ccsc23)c1` [Example 225] are below 50 nM and below 50 nM.
In the same order, the values of `C=CC(=O)Nc1cccc(Oc2nc(Nc3ccc(CCN(C)C)cc3)nc3ccsc23)c1` [Example 191] are below 50 nM and below 50 nM.
As for `C=CC(=O)Nc1cccc(Oc2nc(Nc3ccc(N4CCN(CCF)CC4)cc3)nc3ccsc23)c1` [Example 14], the GI50 in test [1] is 50 to 100 nM; in test [2], below 50 nM.
In the same order, the values of `C=CC(=O)Nc1cccc(Oc2nc(Nc3ccc(CN4CCC(N(C)C)CC4)c(F)c3)nc3ccsc23)c1` [Example 196] are 50 to 100 nM and below 50 nM.
In the same order, the values of `C=CC(=O)Nc1cccc(Oc2nc(Nc3ccc(N4CCC(n5ccnc5)C4)cc3)nc3ccsc23)c1` (centres unmarked) [Example 35] are below 50 nM and below 50 nM.
For `C=CC(=O)Nc1cccc(Oc2nc(Nc3ccc(N4CCC(N5CCOCC5)CC4)c(Cl)c3)nc3ccsc23)c1` [Example 139], the GI50 in test [1] and in test [2] was below 50 nM each time.
`C=CC(=O)Nc1cccc(Oc2nc(Nc3ccc(OCCN(C)C)c(F)c3)nc3ccsc23)c1` [Example 132]: the GI50 in test [1] and in test [2] was below 50 nM throughout.
Consider `C=CC(=O)Nc1cccc(Oc2nc(Nc3ccc(CCN4CCCCC4)cc3)nc3ccsc23)c1` [Example 98], for which the GI50 in test [1] and in test [2] was below 50 nM each time.
As for `C=CC(=O)Nc1cccc(Oc2nc(Nc3ccc(C(=O)OCCCN(C)C)cc3)nc3ccsc23)c1` [Example 93], the GI50 in test [1] and in test [2] was 50 to 100 nM each time.
On to `C=CC(=O)Nc1cccc(Oc2nc(Nc3ccc(OCCN(CC)CC)c(F)c3)nc3ccsc23)c1` [Example 133], for which the GI50 in test [1] and in test [2] was below 50 nM throughout.
For `C=CC(=O)Nc1cccc(Oc2nc(Nc3ccc(N4CCC(N5CCOCC5)CC4)cc3)nc3ccsc23)c1` [Example 49], the GI50 in test [1] and in test [2] was below 50 nM in each case.
Regarding `C=CC(=O)Nc1cccc(Oc2nc(Nc3ccc(N4CCN(CC(F)(F)F)CC4)cc3)nc3ccsc23)c1` [Example 16], the values for the GI50 in test [1] and in test [2] were below 50 nM and 50 to 100 nM, respectively.
The matching figures for `C=CC(=O)Nc1cccc(Nc2nc(Nc3ccc(C4CCCN(C)C4)cc3)nc3ccsc23)c1` (centres unmarked) [Example 210]: below 50 nM and below 50 nM.
The matching figures for `C=CC(=O)Nc1cccc(Oc2nc(Nc3ccc4c(ccn4C)c3)nc3ccsc23)c1` [Example 111]: below 50 nM and 50 to 100 nM.
The matching figures for `C=CC(=O)Nc1cccc(Oc2nc(Nc3ccc(S(C)(=O)=O)cc3)nc3ccsc23)c1` [Example 69]: below 50 nM and 50 to 100 nM.
Take `C=CC(=O)Nc1cccc(Oc2nc(Nc3ccc(-n4ccnc4)cc3)nc3ccsc23)c1` [Example 56]: the GI50 in test [1] is below 50 nM; in test [2], 50 to 100 nM.
In the same order, the values of `C=CC(=O)Nc1cccc(Oc2nc(Nc3ccc(N4CCC(N5CCCC5)CC4)c(Cl)c3)nc3ccsc23)c1` [Example 138] are below 50 nM and below 50 nM.
The matching figures for `C=CC(=O)Nc1cccc(Oc2nc(Nc3ccc(N4CC(C)N(C)C(C)C4)cc3)nc3ccsc23)c1` (centres unmarked) [Example 27]: below 50 nM and below 50 nM.
In the case of `C=CC(=O)Nc1cccc(Nc2nc(Nc3ccc(CCN(C)C)cc3)nc3ccsc23)c1` [Example 213], the GI50 was below 50 nM in test [1] and 50 to 100 nM in test [2].
In the same order, the values of `C=CC(=O)Nc1cccc(Oc2nc(Nc3ccc(CN4CCC4)cc3)nc3ccsc23)c1` [Example 175] are below 50 nM and below 50 nM.
